This note sets out measurements from ChEMBL document CHEMBL4339189, “Dissymmetric pyridyl-substituted 3,5-bis(arylidene)-4-piperidones as anti-hepatoma agents by inhibiting NF-κB pathway activation” (Eur J Med Chem, 2019).

A word on the IC50: it is the concentration needed to halve the response being measured.

A short description of data set [1]: Cytotoxicity against human HHL5 cells assessed as reduction in cell viability incubated for 24 hrs by MTT assay. The note with it: HHL-5, 24 h. It is filed as cell-based. (In general: Formazan colour is commonly taken as a measure of viable cells.)
Data set [2] has as its system HepG2. Nature of the data set: Antitumor activity against human HepG2 cells xenografted in Balb/c nude mouse assessed as induction of incomplete cells at 10 mg/kg, ip administered every 2 days for 20 days and measured every 2 days by H and E staining based assay. Type of data set: functional, organism-based. In general terms: Xenograft models place foreign cells or tissue in a host animal.

Data set [3] concerns SMMC-7721. Nature of the data set: Induction of apoptosis in human SMMC7721 cells assessed as increase in apoptotic cell population at 4.0 uM incubated for 24 hrs by Annexin V-FITC/propidium iodide staining based flow cytometry relative to control. It is filed as functional. A general note: In flow cytometry, cells or beads pass a laser one at a time.
For a further data set, the system named is RAW264.7. Put plainly: Cytotoxicity against mouse RAW264.7 cells assessed as reduction in cell viability at 6.0 uM incubated for 24 hrs by MTT assay. It is filed as cell-based. The note with it: raw264.7, 24 h.
Data set [4] concerns the target Transcription factor p65 (Mus musculus) (UniProt Q04207). Put plainly: Inhibition of NFkappaB activation in mouse RAW264.7 cells assessed as reduction in LPS-induced p65 phosphorylation at 1 to 4 uM incubated for 2 hrs after pre-incubation with LPS for 15 mins by Western blot analysis. Type of data set: cell-based.
Data set [5] deals with HepG2. Nature of the data set: Induction of apoptosis in human HepG2 cells assessed as increase in cleaved caspase-3 expression up to 4 uM after 24 hrs by Western blot analysis. Type of data set: functional, cell-based.
Data set [6] has as its system SMMC-7721. Nature of the data set: Induction of apoptosis in human SMMC7721 cells assessed as increase in apoptotic cell population at 4.0 uM incubated for 24 hrs by Annexin V-FITC/propidium iodide staining based flow cytometry. It is filed as functional.
The subject of data set [7] is SMMC-7721. Put plainly: Induction of apoptosis in human SMMC7721 cells assessed as increase in apoptotic cell population at 2.0 uM incubated for 24 hrs by Annexin V-FITC/propidium iodide staining based flow cytometry relative to control. Type of data set: functional.
The subject of data set [8] is HepG2. Put plainly: Antitumor activity against human HepG2 cells xenografted in Balb/c nude mouse assessed as induction of wrinkled abnormalities on cell morphology at 10 mg/kg, ip administered every 2 days for 20 days and measured every 2 days by H and E staining based assay. Type of data set: functional, organism-based.
The next data set concerns QGY-7703. Put plainly: Induction of apoptosis in human QGY7703 cells assessed as increase in apoptotic cell population at 4.0 uM incubated for 24 hrs by Annexin V-FITC/propidium iodide staining based flow cytometry relative to control. Type of data set: functional.

Active and inactive are the calls of the source. The calls are words filed in the database; no cut-off is given here. Some results are limits rather than exact numbers.

Transcription factor p65 (Mus musculus), sequence (Q04207 whole entry): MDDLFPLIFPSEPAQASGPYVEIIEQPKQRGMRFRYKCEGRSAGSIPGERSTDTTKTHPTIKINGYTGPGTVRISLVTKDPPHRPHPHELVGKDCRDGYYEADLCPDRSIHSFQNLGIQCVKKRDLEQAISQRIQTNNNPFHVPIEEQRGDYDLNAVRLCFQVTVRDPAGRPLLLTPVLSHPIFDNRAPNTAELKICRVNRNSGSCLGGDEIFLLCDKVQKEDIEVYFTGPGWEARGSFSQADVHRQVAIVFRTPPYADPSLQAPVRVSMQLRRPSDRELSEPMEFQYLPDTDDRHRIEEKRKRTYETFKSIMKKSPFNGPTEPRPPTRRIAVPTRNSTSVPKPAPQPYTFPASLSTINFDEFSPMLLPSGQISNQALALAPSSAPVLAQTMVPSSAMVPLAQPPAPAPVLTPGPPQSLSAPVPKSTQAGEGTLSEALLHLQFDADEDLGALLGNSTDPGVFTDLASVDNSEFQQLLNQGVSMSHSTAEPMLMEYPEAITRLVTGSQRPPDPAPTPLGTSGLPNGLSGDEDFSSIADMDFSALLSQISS

As for `O=C1/C(=C/c2cccnc2)CN(S(=O)(=O)c2ccc(C(F)(F)F)cc2)C/C1=C\c1ccccc1C(F)(F)F`, the IC50 in [1] worked out at 15.8 µM. The result with HepG2 [2] and in the data set on HepG2 [8] was Active. The Activity in the data set with SMMC-7721 [3] is greater than 70%; in the data set with RAW264.7 it was “Non-Toxic”; with HepG2 [5], “Dose-dependent effect”; in the data set with SMMC-7721 [6], “Dose-dependent effect”; in the data set on SMMC-7721 [7], 40%; in the data set on QGY-7703 it was greater than 70%. Besides, the inhibition entry in data set [4] is “Dose-dependent effect”.
